Measured values taken from ChEMBL document CHEMBL5537147, “Development of membrane-targeting TPP+-chloramphenicol conjugates to combat methicillin-resistant staphylococcus aureus (MRSA) infections” (Eur J Med Chem, 2024).

What was measured:
[1] = test system: Staphylococcus aureus; assay: Antibacterial activity against methicillin-resistant Staphylococcus aureus 330041 assessed as inhibition of bacterial growth incubated for 16 to 18 hrs by CLSI based two-fold serial dilution method; type: functional; details: time 16-18 hrs
[2] = test system: Staphylococcus aureus; assay: Antibacterial activity against methicillin-resistant Staphylococcus aureus 3390 assessed as inhibition of bacterial growth incubated for 16 to 18 hrs by CLSI based two-fold serial dilution method; type: functional; details: time 16-18 hrs
[3] = test system: Staphylococcus aureus; assay: Antibacterial activity against methicillin-resistant Staphylococcus aureus 3392 assessed as inhibition of bacterial growth incubated for 16 to 18 hrs by CLSI based two-fold serial dilution method; type: functional; details: time 16-18 hrs
[4] = test system: Staphylococcus aureus; assay: Antibacterial activity against methicillin-resistant Staphylococcus aureus USA300 assessed as inhibition of bacterial growth incubated for 16 to 18 hrs by CLSI based two-fold serial dilution method; type: functional; details: time 16-18 hrs
[5] = test system: Acinetobacter baumannii; assay: Antibacterial activity against Acinetobacter baumannii 1309 assessed as inhibition of bacterial growth incubated for 16 to 18 hrs by CLSI based two-fold serial dilution method; type: functional; details: time 16-18 hrs
[6] = test system: Acinetobacter baumannii; assay: Antibacterial activity against Acinetobacter baumannii 1310 assessed as inhibition of bacterial growth incubated for 16 to 18 hrs by CLSI based two-fold serial dilution method; type: functional; details: time 16-18 hrs
[7] = test system: Pseudomonas aeruginosa; assay: Antibacterial activity against Pseudomonas aeruginosa 408 assessed as inhibition of bacterial growth incubated for 16 to 18 hrs by CLSI based two-fold serial dilution method; type: functional; details: time 16-18 hrs
[8] = test system: Pseudomonas aeruginosa; assay: Antibacterial activity against Pseudomonas aeruginosa 535 assessed as inhibition of bacterial growth incubated for 16 to 18 hrs by CLSI based two-fold serial dilution method; type: functional; details: time 16-18 hrs
[9] = Cytotoxicity against human L02 cells assessed as inhibition of cell growth incubated for 24 hrs by MTT assay; type: toxicity, cell-based

Structure (SMILES) | MIC [1] [µg/mL] | MIC [2] [µg/mL] | MIC [3] [µg/mL] | MIC [4] [µg/mL] | MIC [5] [µg/mL] | MIC [6] [µg/mL] | MIC [7] [µg/mL] | MIC [8] [µg/mL] | IC50 at 24 h [9] [µg/mL]
O=C(O)CC[P+](c1ccccc1)(c1ccccc1)c1ccccc1.[Br-] | > 64 | > 64 | > 64 | > 64 | > 64 | > 64 | > 64 | > 64 | > 64
Br.O=C(CCCCCCCCC[P+](c1ccc(Cl)cc1)(c1ccc(Cl)cc1)c1ccc(Cl)cc1)OC[C@H](NC(=O)C(Cl)Cl)[C@H](O)c1ccc([N+](=O)[O-])cc1 | 0.5 | 0.5 | 0.5 | 0.5 | > 64 | > 64 | > 64 | > 64 | 16.4
O=C(O)CCCCCCC[P+](c1ccccc1)(c1ccccc1)c1ccccc1.[Br-] | > 64 | > 64 | > 64 | > 64 | > 64 | > 64 | > 64 | > 64 | > 64
Br.O=C(CCCCCn1cc(C[P+](c2ccc(F)cc2)(c2ccc(F)cc2)c2ccc(F)cc2)nn1)OC[C@H](NC(=O)C(Cl)Cl)[C@H](O)c1ccc([N+](=O)[O-])cc1 | 16 | 16 | 16 | 16 | > 64 | > 64 | > 64 | > 64 | > 64
Br.O=C(CCCCCCCCC[P+](c1cccc(F)c1)(c1cccc(F)c1)c1cccc(F)c1)OC[C@H](NC(=O)C(Cl)Cl)[C@H](O)c1ccc([N+](=O)[O-])cc1 | 1 | 1 | 1 | 1 | > 64 | > 64 | > 64 | > 64 | 28.7
O=C(O)CCCCCCCCCCCCCCCCC[P+](c1ccccc1)(c1ccccc1)c1ccccc1.[Br-] | > 64 | > 64 | > 64 | > 64 | > 64 | > 64 | > 64 | > 64 | > 64
Br.O=C(CCCCC[P+](c1ccccc1)(c1ccccc1)c1ccccc1)OC[C@H](NC(=O)C(Cl)Cl)[C@H](O)c1ccc([N+](=O)[O-])cc1 | 16 | 16 | 8 | 8 | > 64 | > 64 | > 64 | > 64 | > 64
Br.O=C(CCCCCCCCCCCCCCCCC[P+](c1ccccc1)(c1ccccc1)c1ccccc1)OC[C@H](NC(=O)C(Cl)Cl)[C@H](O)c1ccc([N+](=O)[O-])cc1 | 2 | 2 | 2 | 2 | > 64 | > 64 | > 64 | > 64 | 7.9
Br.O=C(CCCCCCCCCCC[P+](c1ccccc1)(c1ccccc1)c1ccccc1)OC[C@H](NC(=O)C(Cl)Cl)[C@H](O)c1ccc([N+](=O)[O-])cc1 | 2 | 2 | 2 | 2 | > 64 | > 64 | > 64 | > 64 | 16.5
COc1ccc([P+](CCCCCCCCCC(=O)O)(c2ccc(OC)cc2)c2ccc(OC)cc2)cc1.[Br-] | 32 | 16 | 32 | 32 | 64 | 64 | > 64 | > 64 | 13.5
Br.O=C(CCCCCCCCC[P+](c1ccccc1)(c1ccccc1)c1ccccc1)O[C@H](c1ccc([N+](=O)[O-])cc1)[C@H](CO)NC(=O)C(Cl)Cl | 1 | 1 | 2 | 1 | > 64 | > 64 | > 64 | > 64 | < 32
Br.O=C(CCCCCCC[P+](c1ccccc1)(c1ccccc1)c1ccccc1)OC[C@H](NC(=O)C(Cl)Cl)[C@H](O)c1ccc([N+](=O)[O-])cc1 | 2 | 2 | 2 | 2 | > 64 | > 64 | > 64 | > 64 | > 64
Br.O=C(CC[P+](c1ccccc1)(c1ccccc1)c1ccccc1)OC[C@H](NC(=O)C(Cl)Cl)[C@H](O)c1ccc([N+](=O)[O-])cc1 | > 64 | > 64 | > 64 | > 64 | > 64 | > 64 | > 64 | > 64 | > 64
COc1cccc([P+](CCCCCCCCCC(=O)O)(c2cccc(OC)c2)c2cccc(OC)c2)c1.[Br-] | 32 | 32 | 16 | 32 | 64 | > 64 | 64 | > 64 | 15.4
Br.COc1ccc([P+](CCCCCCCCCC(=O)OC[C@H](NC(=O)C(Cl)Cl)[C@H](O)c2ccc([N+](=O)[O-])cc2)(c2ccc(OC)cc2)c2ccc(OC)cc2)cc1 | 1 | 2 | 2 | 2 | > 64 | > 64 | > 64 | > 64 | 23.5
O=C(O)CCCCCCCCC[P+](c1cccc(F)c1)(c1cccc(F)c1)c1cccc(F)c1.[Br-] | > 64 | > 64 | > 64 | > 64 | > 64 | > 64 | > 64 | > 64 | > 64
O=C(O)CCCC[P+](c1ccccc1)(c1ccccc1)c1ccccc1.[Br-] | > 64 | > 64 | > 64 | > 64 | > 64 | > 64 | > 64 | > 64 | > 64
Br.COc1cccc([P+](CCCCCCCCCC(=O)OC[C@H](NC(=O)C(Cl)Cl)[C@H](O)c2ccc([N+](=O)[O-])cc2)(c2cccc(OC)c2)c2cccc(OC)c2)c1 | 1 | 2 | 1 | 1 | > 64 | > 64 | 4 | 16 | 21.7
Br.O=C(CCC[P+](c1ccccc1)(c1ccccc1)c1ccccc1)OC[C@H](NC(=O)C(Cl)Cl)[C@H](O)c1ccc([N+](=O)[O-])cc1 | 32 | 32 | 32 | 16 | > 64 | > 64 | > 64 | > 64 | > 64
O=C(O)c1cn(C2CC2)c2cc(N3CCNCC3)c(F)cc2c1=O [CIPROFLOXACIN] | – | – | – | – | – | – | – | – | > 64
